As usually defined, the IC50 is the midpoint of a concentration-inhibition curve.

One test addresses Wee1 protein (Homo sapiens (Human), UniProt P30291). Kind of test: TR-FRET binding of compound to Wee1 protein and Tracer 178. As to conditions: Tracer 178, read-out: IC50, inhibitory activity against Wee1 kinase. The method, then:
First, solutions of the compounds in different concentration gradients were prepared. The compounds were dissolved in DMSO and the compounds were diluted 4 folds with a total of 10 dose points and 2 parallel replicates for each concentration.
The IC50 for inhibition of enzyme activity by the compounds was then calculated using GraphPad Prism 6 and fitted with a log (inhibitor) vs. response-Variable slope mode. The fitting equation was: Y=Bottom+(Top−Bottom)/(1+10^((Log IC50−X)*HillSlope)), where Y represents the percentage of residual enzyme activity known and X represents the known concentration of compound after the logarithm.

The test system of the next test is BxPC3 cells. The test is described as follows: Cell Titer-Glo anti-proliferation, BxPC3 cells. Type of test: cell-based, human. As to conditions: 3 days, read-out: Anti-proliferative activity BxPC3 (IC50 class). As for the experimental part:
(§1) A. Evaluation of the Anti-Proliferative Effect of Compounds on BxPC3, HT-29 and OVCAR-3 Cells by the Cell Titer-Glo Method
(§2) Compound solutions of different concentration gradients were prepared. […] The cell growth group without compound was used as a positive control (maximum signal control) and the medium was used as a negative control (minimum signal control), while ensuring that the final level of DMSO in each reaction well was 0.2%. After removing the medium from the 384-well plate, 25 μl of the configured compound at different concentrations was transferred into the well plate and the compound and cells were incubated in the cell incubator at 37° C. with 5% CO2 for 3 days.
(§3) The 384-well plates were removed from the cell incubator and allowed to equilibrate for 1 h to room temperature. 25 μl of Cell Titer-Glo assay was added to each well, lysed on a shaker for 2 min and then read out (Luminescence) using a BMG PHERAStar after 10 min incubation. Calculate the inhibition rate from the luminescence signal.
(§4) to calculate the rate of inhibition of the cells by different concentrations of the compounds. The IC50 of the compound on cell activity inhibition was calculated by fitting a log(inhibitor) vs. response-Variable slope model to GraphPad Prism 6. The fitted equation was: Y=Bottom+(Top-Bottom)/(1+10^((Log IC50−X)*HillSlope)), where Y represents the rate of inhibition and X represents the concentration of the known compound after Log.

Another test concerns HT-29 cells. The test is described as follows: Cell Titer-Glo anti-proliferation, HT-29 cells. As to conditions: 3 days, read-out: Anti-proliferative activity HT-29 (IC50 class). Type of test: cell-based, human. The method, then: as §1, §2, §3, §4
(In ATP-based viability assays light output follows the ATP content of the culture.)

The subject of another test is OVCAR-3 cells. Kind of test: Cell Titer-Glo anti-proliferation, OVCAR-3 cells. Type of test: cell-based. As to conditions: 3 days, read-out: Anti-proliferative activity OVCAR-3 (IC50 class). As for the experimental part:
as §1, §2, §3, §4

Sequence of Wee1 protein (P30291 whole entry): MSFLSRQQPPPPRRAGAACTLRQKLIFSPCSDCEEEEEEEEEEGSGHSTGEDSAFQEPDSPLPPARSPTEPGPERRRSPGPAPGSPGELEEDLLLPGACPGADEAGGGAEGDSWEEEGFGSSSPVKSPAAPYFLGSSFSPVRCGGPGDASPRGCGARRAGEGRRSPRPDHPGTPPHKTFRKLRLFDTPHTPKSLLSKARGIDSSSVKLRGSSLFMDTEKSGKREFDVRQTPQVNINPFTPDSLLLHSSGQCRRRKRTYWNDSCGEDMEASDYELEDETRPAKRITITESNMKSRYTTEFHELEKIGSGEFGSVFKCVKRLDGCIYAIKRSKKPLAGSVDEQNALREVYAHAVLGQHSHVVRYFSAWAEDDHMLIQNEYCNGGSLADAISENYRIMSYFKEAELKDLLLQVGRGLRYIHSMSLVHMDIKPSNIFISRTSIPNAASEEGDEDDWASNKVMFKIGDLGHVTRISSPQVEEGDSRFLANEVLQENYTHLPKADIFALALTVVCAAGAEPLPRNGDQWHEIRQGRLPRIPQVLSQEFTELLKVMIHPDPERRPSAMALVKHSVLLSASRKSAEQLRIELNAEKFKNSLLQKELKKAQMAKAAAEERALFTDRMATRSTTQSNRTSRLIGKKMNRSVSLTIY

Turning to `C=CCn1c(=O)c2cnc(Nc3ccc(N4CCN(C)CC4)cc3)nc2n1-c1ccc2c(n1)[C@@H](O)C1(CC2)CC1` (single isomer, unassigned) [Compound 4a], the IC50 was no more than 5 nM at Wee1 protein, 2000 to 5000 nM in the test on BxPC3 cells, 1000 to 2000 nM in the test with HT-29 cells and 2000 to 5000 nM with OVCAR-3 cells.

Turning to `C=CCn1c(=O)c2cnc(Nc3ccc(N4CCN(C)CC4)c(C)c3)nc2n1-c1ccc2c(n1)[C@@](C)(O)C1(CC2)CC1` (single isomer, unassigned) [Compound 23a], the IC50 at Wee1 protein was no more than 5 nM; in the test with BxPC3 cells, 100 to 1000 nM; in the test with HT-29 cells it was 100 to 1000 nM; in the test on OVCAR-3 cells, 100 to 1000 nM.

In the case of `C=CCn1c(=O)c2cnc(Nc3ccc(N4CCN(C)CC4)cc3)nc2n1-c1ccc2c(c1)N(CC)C(=O)C21CC1` [Compound 1], the IC50 was in the range of 10 to 100 nM on Wee1 protein, 5000 to 10000 nM with BxPC3 cells and 1000 to 2000 nM in the test on HT-29 cells.

Consider `C=CCn1c(=O)c2cnc(Nc3ccc(N4CCN(C)CC4)cc3)nc2n1-c1ccc2c(n1)N(CC)C(=O)C21CCC1` [Compound 2], for which the values for the IC50 at Wee1 protein, in the test on BxPC3 cells and in the test with HT-29 cells were 10 to 100 nM, 2000 to 5000 nM and 1000 to 2000 nM, respectively.

Regarding `C=CCn1c(=O)c2cnc(Nc3ccc(N4CCC(N(C)C)CC4)c(C)c3)nc2n1-c1ccc2c(n1)C(C)(O)C1(CC2)CC1` (centres unmarked) [Compound 52b], the IC50 in the test with BxPC3 cells, in the test on HT-29 cells and with OVCAR-3 cells was 100 to 1000 nM in each case.

On to `C=CCn1c(=O)c2cnc(Nc3ccc(N4CCN(C)CC4)cc3)nc2n1-c1ccc2c(n1)C(O)(C(F)(F)F)C1(CC2)CC1` (centres unmarked) [Compound 53b], for which the figures for the concentration for half-maximal inhibition (IC50) with BxPC3 cells, in the test on HT-29 cells and with OVCAR-3 cells were 100 to 1000 nM, 100 to 1000 nM and 1000 to 2000 nM, respectively.

`C=CCn1c(=O)c2cnc(Nc3ccc(N4CCC(N(C)C)CC4)cc3)nc2n1-c1ccc2c(n1)C(O)(C(F)(F)F)C1(CC2)CC1` (centres unmarked) [Compound 54b]: the IC50 in the test with BxPC3 cells, in the test with HT-29 cells and in the test on OVCAR-3 cells was 100 to 1000 nM throughout.

For `C=CCn1c(=O)c2cnc(Nc3ccc(N4CC5CC(C4)N5CCF)cc3)nc2n1-c1ccc2c(n1)C(C)(O)C1(CC2)CC1` (centres unmarked) [Compound 59b], the IC50 with BxPC3 cells was 1000 to 2000 nM; with HT-29 cells, 100 to 1000 nM; with OVCAR-3 cells, 1000 to 2000 nM.

As to `C=CCn1c(=O)c2cnc(Nc3ccc(N4CCC(N(C)C)[C@H](F)C4)cc3)nc2n1-c1ccc2c(n1)C(C)(O)C1(CC2)CC1` (some centres unmarked) [Compound 60a], the IC50 in the test on BxPC3 cells, with HT-29 cells and in the test on OVCAR-3 cells was 100 to 1000 nM in each case.

Consider `C=CCn1c(=O)c2cnc(Nc3ccc(N4CCC5(CCN(C)CC5)CC4)c(F)c3)nc2n1-c1ccc2c(n1)C(O)C1(CC2)CC1` (centres unmarked) [Compound 62b], for which the IC50 with BxPC3 cells, in the test with HT-29 cells and with OVCAR-3 cells was 100 to 1000 nM throughout.

Regarding `C=CCn1c(=O)c2cnc(Nc3ccc(N4CCC(N(C)C)CC4)cc3)nc2n1-c1ccc2c(n1)C(C)(O)C1(CC2)CC1` (centres unmarked) [Compound 65b], the IC50 with BxPC3 cells, in the test with HT-29 cells and in the test on OVCAR-3 cells was 100 to 1000 nM each time.

With `C=CCn1c(=O)c2cnc(Nc3ccc(N4CCC(N(C)C)CC4)cc3)nc2n1-c1ccc2c(n1)C(O)C1(CC2)CC1` (centres unmarked) [Compound 66b], the IC50 in the test on BxPC3 cells was in the range of 100 to 1000 nM; with HT-29 cells, 100 to 1000 nM; with OVCAR-3 cells it was 1000 to 2000 nM.

Take `C=CCn1c(=O)c2cnc(Nc3ccc(N4CC5CC(C4)N5C)c(C)c3)nc2n1-c1ccc2c(n1)C(O)C1(CC2)CC1` (centres unmarked) [Compound 67]: the IC50 with BxPC3 cells, in the test on HT-29 cells and with OVCAR-3 cells was 1000 to 2000 nM each time.

With `C=CCn1c(=O)c2cnc(Nc3ccc(N4CCN(C)C(C)C4)cc3)nc2n1-c1ccc2c(n1)C(O)C1(CC2)CC1` (centres unmarked) [Compound 68b], the IC50 with BxPC3 cells, in the test on HT-29 cells and with OVCAR-3 cells was 100 to 1000 nM in each case.

As to `C=CCn1c(=O)c2cnc(Nc3ccc(N4CCC5(CCN(C)CC5)CC4)cc3)nc2n1-c1ccc2c(n1)C(O)(CC)C1(CC2)CC1` (centres unmarked) [Compound 69b], the IC50 in the test with BxPC3 cells, in the test on HT-29 cells and with OVCAR-3 cells was 1000 to 2000 nM throughout.

The values are drawn from US20250304587A1, “WEE1 INHIBITOR, PREPARATION THEREFOR AND USE THEREOF” (JIANGSU TASLY DIYI PHARMACEUTICAL CO., LTD., priority 2022, published 2025).
